Test results: the NIST ThermoML archive (doi:10.1016/j.jct.2017.11.012)

Conditions: for mass density: 101.33 kPa, Liquid, Buoyancy - hydrostatic balance with magnetic suspension - one sinker

CCCCCCCn1cc[n+](C)c1.[Br-] [1-heptyl-3-methylimidazolium bromide]
Conditions	mass density [kg/m3]
288.61 K	1204.51
293.46 K	1200.12
298.41 K	1196.78
303.25 K	1193
308.21 K	1189.59
313.68 K	1184.48
318.07 K	1180.84
323.13 K	1177.36
328.04 K	1173.42
333.16 K	1169.7
338.28 K	1165.8
342.93 K	1162.61
348 K	1159.27
353.15 K	1155.57
358.44 K	1151.81
361.83 K	1149.33

surface tension liquid-gas [mN/m]
Conditions	Ring tensiometer	Wilhelmy Plate
313.61 K	34.83	34.57
317.99 K	34.5	–
318.02 K	–	34.35
323.11 K	34.21	–
323.13 K	–	34.09
328.07 K	34.3	–
328.11 K	–	33.89
333.19 K	33.55	–
333.24 K	–	33.58
338.33 K	33.25	33.3
341.81 K	33.17	–
341.91 K	–	33.14
347.18 K	33.07	–
347.23 K	–	32.89
353.09 K	32.56	–
353.14 K	–	32.61
358.31 K	32.41	–
358.37 K	–	32.4
361.72 K	32.03	–
361.8 K	–	32.17

Br.Cn1ccnc1 [1-methylimidazolium bromide]
surface tension liquid-gas [mN/m]
Conditions	Ring tensiometer	Wilhelmy Plate
323.07 K	67.99	68.35
328.84 K	67.68	67.81
332.74 K	–	67.37
332.76 K	67.45	–
337.93 K	67.14	–
338.02 K	–	66.81
344.29 K	66	–
344.42 K	–	66.16
347.21 K	65.6	–
347.25 K	–	65.85
353.02 K	64.6	–
353.08 K	–	65.23
358.29 K	64.85	–
358.33 K	–	64.67
364.65 K	64.42	–
364.75 K	–	63.96

Conditions	mass density [kg/m3]
328.83 K	1557.9
332.76 K	1554.36
337.92 K	1550.16
344.29 K	1544.92
347.1 K	1542.88
353.02 K	1538.47
358.15 K	1534.17
364.58 K	1530.63

CCCCCn1cc[n+](C)c1.[Br-] [1-pentyl-3-methylimidazolium bromide]
Conditions	mass density [kg/m3]
298.49 K	1262.83
303.3 K	1259.38
308.12 K	1256.49
313.27 K	1252.83
318.27 K	1249.49
323.3 K	1245.55
327.41 K	1242.66
333.16 K	1239.16
338.01 K	1236.12
343.01 K	1232.8
348.13 K	1229.53
353.01 K	1226.21
358.12 K	1222.61
362.97 K	1219.41

Conditions	surface tension liquid-gas [mN/m]
333.23 K, Ring tensiometer	41.96
333.26 K, Wilhelmy Plate	41.79
338.06 K, Ring tensiometer	41.95
338.08 K, Wilhelmy Plate	41.6
343.07 K, Ring tensiometer	41.84
343.09 K, Wilhelmy Plate	41.38
348.23 K, Ring tensiometer	41.59
348.26 K, Wilhelmy Plate	41.18
353.11 K, Ring tensiometer	41.45
353.13 K, Wilhelmy Plate	41
358.22 K, Ring tensiometer	41.24
358.24 K, Wilhelmy Plate	40.81
363.07 K, Ring tensiometer	41.04
363.12 K, Wilhelmy Plate	40.6

CCCCCCn1cc[n+](C)c1.[Br-] [3-hexyl-1-methyl-1H-imidazolium bromide]
surface tension liquid-gas [mN/m]
Conditions	Ring tensiometer	Wilhelmy Plate
288.65 K	40.83	–
293.93 K	40.58	–
298.48 K	40.31	–
303.39 K	40.14	–
303.45 K	–	39.75
308.08 K	39.96	–
308.14 K	–	39.56
313.4 K	39.68	–
313.41 K	–	39.34
318.16 K	39.45	39.12
323.29 K	–	38.8
323.34 K	39.07	–
328.24 K	–	38.58
328.26 K	38.83	–
333.84 K	38.51	–
333.86 K	–	38.26
338.01 K	38.31	–
338.05 K	–	38.08
343.05 K	38.09	–
343.07 K	–	37.86
348.61 K	37.8	–
348.66 K	–	37.51
352.53 K	37.43	–
352.73 K	–	37.37
358.19 K	37.28	–
358.21 K	–	37.02
360.12 K	37.19	–
360.23 K	–	36.96

Conditions	mass density [kg/m3]
288.7 K	1235.51
293.91 K	1231.69
298.52 K	1228.13
303.43 K	1224.72
308.13 K	1220.87
313.41 K	1216.98
318.19 K	1213.32
323.33 K	1209.5
328.2 K	1205.7
333.8 K	1201.57
338.04 K	1198.15
343.07 K	1195.21
348.64 K	1191.41
352.79 K	1188.62
358.28 K	1185.22
360.63 K	1183.34

CCCCCCCCCCn1cc[n+](C)c1.[Br-] [1-decyl-3-methylimidazolium bromide]
Conditions	mass density [kg/m3]
298.41 K	1128.2
303.45 K	1124.55
308.2 K	1121.27
313.5 K	1117.38
318.29 K	1113.91
322.96 K	1110.37
327.96 K	1106.69
333.59 K	1102.59
337.76 K	1099.91
343.08 K	1095.88
348.29 K	1092.59
352.96 K	1089.23
358.48 K	1085.6
361.87 K	1083.32

Conditions	surface tension liquid-gas [mN/m]
303.38 K, Ring tensiometer	28.04
303.43 K, Wilhelmy Plate	27.64
308.15 K, Ring tensiometer	27.97
313.47 K, Ring tensiometer	27.73
318.26 K, Ring tensiometer	27.54
322.99 K, Ring tensiometer	27.14
323.02 K, Wilhelmy Plate	26.87
328.01 K, Ring tensiometer	27.01
328.08 K, Wilhelmy Plate	26.65
332.75 K, Ring tensiometer	26.87
332.76 K, Wilhelmy Plate	26.45
337.48 K, Wilhelmy Plate	26.22
338.06 K, Ring tensiometer	26.74
343.15 K, Ring tensiometer	26.07
343.19 K, Wilhelmy Plate	25.97
347.35 K, Ring tensiometer	26.14
347.47 K, Wilhelmy Plate	25.82
352.46 K, Ring tensiometer	25.77
352.93 K, Wilhelmy Plate	25.57
358.38 K, Ring tensiometer	25.28
358.41 K, Wilhelmy Plate	25.36
361.45 K, Ring tensiometer	25.51
361.5 K, Wilhelmy Plate	25.22

CCCCn1cc[n+](C)c1.[Br-] [1-butyl-3-methylimidazolium bromide]
surface tension liquid-gas [mN/m]
Conditions	Ring tensiometer	Wilhelmy Plate
308.39 K	50.28	49.98
313.11 K	49.8	49.69
318.48 K	49.51	49.33
323.54 K	–	48.98
323.57 K	49.22	–
328.1 K	–	48.67
328.14 K	48.96	–
333.02 K	–	48.35
333.03 K	48.6	–
337.99 K	48.27	–
338.01 K	–	48.07
342.75 K	48	47.75
349.14 K	47.72	–
349.16 K	–	47.31
353.12 K	47.24	–
353.41 K	–	47.09
358.27 K	47.27	–
358.3 K	–	46.78
362.9 K	46.86	–
362.92 K	–	46.39

Conditions	mass density [kg/m3]
308.39 K	1299.64
313.12 K	1296.36
318.5 K	1292.56
323.58 K	1288.88
328.14 K	1285.46
333.02 K	1281.54
337.96 K	1278.29
342.67 K	1275.32
349.08 K	1271.43
353.08 K	1268.23
358.19 K	1264.49
362.86 K	1261.43

CCC[n+]1ccn(C)c1.[Br-] [1-methyl-3-propylimidazolium bromide]
surface tension liquid-gas [mN/m]
Conditions	Ring tensiometer	Wilhelmy Plate
328.53 K	–	55.02
328.55 K	55.07	–
333.09 K	–	54.74
333.1 K	55.08	–
337.75 K	54.69	54.46
343.78 K	54.17	–
343.8 K	–	53.93
347.98 K	53.66	–
348.01 K	–	53.75
352.22 K	–	53.51
352.34 K	53.52	–
358.15 K	52.86	–
358.17 K	–	53.09
362.78 K	52.94	–
362.89 K	–	52.72

Conditions	mass density [kg/m3]
333.07 K	1332.55
337.73 K	1329.41
343.74 K	1325.39
347.91 K	1322.26
352.28 K	1318.84
358.1 K	1314.79
362.76 K	1310.9

CCCCCCCCn1cc[n+](C)c1.[Br-] [1-methyl-3-octylimidazolium bromide]
Conditions	mass density [kg/m3]
293.61 K	1173.83
298.22 K	1170.38
303.23 K	1166.69
307.98 K	1163.19
313.53 K	1159.21
318.39 K	1155.7
323.35 K	1151.66
328.26 K	1147.97
332.57 K	1145.04
338.39 K	1140.81
342.96 K	1137.99
347.82 K	1135.43
353.15 K	1131.58
358.97 K	1127.78
360.84 K	1126.32

surface tension liquid-gas [mN/m]
Conditions	Ring tensiometer	Wilhelmy Plate
303.23 K	32.9	32.52
307.93 K	–	32.34
307.95 K	32.68	–
313.51 K	32.49	32.16
318.36 K	–	31.99
318.37 K	32.28	–
323.33 K	–	31.75
323.34 K	32.03	–
328.25 K	–	31.56
328.26 K	31.79	–
332.59 K	31.67	–
332.6 K	–	31.43
338.4 K	31.5	–
338.44 K	–	31.17
343.06 K	30.97	–
343.07 K	–	30.89
347.49 K	30.57	–
347.69 K	–	30.73
352.5 K	–	30.58
352.52 K	30.66	–
357.51 K	30.27	–
357.64 K	–	30.33
360.82 K	30.43	–
360.88 K	–	30.24

CCn1cc[n+](C)c1.[Br-] [1-ethyl-3-methylimidazolium bromide]
surface tension liquid-gas [mN/m]
Conditions	343.14 K	348.29 K	348.32 K	352.84 K	358.28 K	364.1 K	364.11 K
Ring tensiometer	62.01	61.86	–	61.28	61.25	60.53	–
Wilhelmy Plate	–	–	61.4	61.03	60.65	–	60.34

Conditions	mass density [kg/m3]
348.26 K	1381.17
352.77 K	1378.39
358.17 K	1375.04
364.02 K	1370.88

CCCCCCCCCn1cc[n+](C)c1.[Br-] [1-methyl-3-nonylimidazolium bromide]
Conditions	mass density [kg/m3]
293.53 K	1151.11
298.66 K	1147.53
303.27 K	1143.87
308.55 K	1140.39
313.46 K	1136.5
318.04 K	1132.93
323.21 K	1129.22
327.91 K	1125.75
333.09 K	1122.06
338.45 K	1118.47
342.75 K	1115.49
348.28 K	1112.09
353.51 K	1108.37
358.3 K	1105.2
361.69 K	1103.16

surface tension liquid-gas [mN/m]
Conditions	Ring tensiometer	Wilhelmy Plate
298.64 K	30.63	–
303.27 K	30.41	–
303.28 K	–	30.12
308.54 K	30.17	–
308.55 K	–	29.91
313.44 K	29.95	29.73
318.03 K	29.77	29.54
323.2 K	29.62	–
323.23 K	–	29.3
327.94 K	29.41	–
327.97 K	–	29.1
333.09 K	29.19	–
333.11 K	–	28.86
338.49 K	28.72	28.59
342.76 K	28.51	–
342.8 K	–	28.39
348.23 K	28.46	–
348.31 K	–	28.18
352.32 K	27.98	–
352.4 K	–	27.99
358.25 K	27.94	–
358.31 K	–	27.75
361.6 K	27.82	–
361.68 K	–	27.59
